# Measurements published in patent US20230183758A1, “METHOD FOR PREPARING DIACYLGLYCEROL BY IMMOBILIZED SN-2 LIPASE” (Shandong Academy of Agricultural Sciences, priority 2021, published 2023).
# “Also recorded” adds a separate entry of the source.
# Molecular target: immobilized enzyme CAL-A and free enzyme CAL-A (Moesziomyces aphidis, UniProt W3VKA4)
# Assay: Influence of organic solvents, metal ions and surfactants on enzyme activity
# Type: biochemical, Candida antarctica
# Details: for effect of organic solvent on hydrolysis activity: 10% (v/v) and 20% (v/v) solvent
# Text: Add 10 mmol/L, 5 mmol/L, l0 mmol/L K+, Al^3+, Fe^2+, Fe3+, Ca^2+, Mg^2+, Mn^2+, Zn^2+, Ba^2+, Na^2+ and other 10 kinds of metal ion solutions to measure the enzyme activity respectively, take the activity of the untreated immobilized enzyme CAL-A and free enzyme CAL-A enzyme as 100%, analyze the influence of metal ions on the enzyme activity. (FIG. 4-G, FIG. 4-H, FIG. 4-I).
# Add 10% (v/v) and 20% (v/v) methanol, ethanol, acetonitrile, acetone, n-butanol, isooctane, isopropanol, n-hexane, n-heptane, petroleum ether, tert-butyl Alcohol, glacial acetic acid, ethyl acetate and other 13 kinds of organic solvent solutions respectively, measure the enzyme activity. Take the untreated immobilized enzyme CAL-A and free enzyme CAL-A enzyme activity as 100%, analyze the influence of organic solvent on the enzyme activity.
# Add 0.0001%, 0.0005%, 0.001% SDS, TritionX-100, Tween-80, Tween-20, EDTA and other 5 kinds of surfactant solutions respectively, measure the enzyme activity, take the untreated immobilized enzyme CAL-A and free enzyme CAL-A enzyme activity as 100%, analyze the influence of surfactant on enzyme activity.
# Chain of immobilized enzyme CAL-A and free enzyme CAL-A (W3VKA4 22-462): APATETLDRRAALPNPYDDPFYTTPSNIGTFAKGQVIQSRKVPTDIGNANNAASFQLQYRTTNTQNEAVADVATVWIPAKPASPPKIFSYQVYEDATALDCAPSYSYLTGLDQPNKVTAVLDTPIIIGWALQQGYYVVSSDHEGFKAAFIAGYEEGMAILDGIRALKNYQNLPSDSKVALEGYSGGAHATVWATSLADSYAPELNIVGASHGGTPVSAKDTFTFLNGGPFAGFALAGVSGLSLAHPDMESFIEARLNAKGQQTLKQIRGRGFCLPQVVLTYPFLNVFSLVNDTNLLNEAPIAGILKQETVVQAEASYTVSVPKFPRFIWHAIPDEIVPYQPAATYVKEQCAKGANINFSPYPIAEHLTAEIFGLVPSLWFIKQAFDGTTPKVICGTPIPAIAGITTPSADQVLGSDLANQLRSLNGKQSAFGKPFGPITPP
Compound,effect of organic solvent on hydrolysis activity (untreated enzyme = 100%),further results
O=C(O)CN(CCN(CC(=O)O)CC(=O)O)CC(=O)O [EDTA],,effect of surfactant on lipase activity (0.0005% EDTA): activating effect; also recorded: activate; effect of surfactant on lipase activity (0.001% EDTA): inhibitory effect; also recorded: inhibit
O=S(=O)([O-])[O-].[Fe+2] [Fe^2+],,"effect of metal ion on hydrolysis of immobilized enzymes (metal ion solutions 1, 5, 10 mmol/L, untreated enzyme = 100%): activate"
CC(=O)O [acetic acid],significantly inhibit; also recorded: obvious inhibitory effects,
CCO [ethanol],significantly inhibit; also recorded: obvious inhibitory effects,
CCOC(C)=O [ethyl acetate],activate; also recorded: activation effects,
CCCCCC [n-hexane],significantly inhibit; also recorded: obvious inhibitory effects,
CC(C)(C)O [tert-butanol],activate; also recorded: activation effects,
n-butanol,activate; also recorded: activation effects,
